The values that follow are results of earlier work, collected in patent publication US20160206641A1, “RAPIDLY-[…] FILM FORMULATION OF WATER SOLUBLE […] GLYCOSIDE FOR THE TREATMENT OF […] DISEASE” (LUMINUS BIOSCIENCES INC., priority 2013, published 2016).

≈ marks a conversion by molar mass, not a printed value.

`C[C@@H]1O[C@@H](O[C@H]2C[C@@H](O)[C@]3(CO)[C@H]4[C@H](O)C[C@]5(C)[C@@H](C6=CC(=O)OC6)CC[C@]5(O)[C@@H]4CC[C@]3(O)C2)[C@H](O)[C@H](O)[C@H]1O` [ouabain, 1β,3β,5β,11α,14,19-Hexahydroxycard-20(22)-enolide 3-(6-deoxy-α-L-mannopyranoside)]: the “solubility in cold water” value (cold water) was 10000 µg/mL (≈ 17.1 mM). Also, the “solubility in hot water” value (hot water) is “more than 50 mg/ml”.
